Experimental data taken from patent US10725049B2, “Methods of detecting and measuring glutamine and analogues thereof, and methods related thereto” (Victoria Link Limited, priority 2013, dated 2020).

Tests used:
BpsA [1] = target: T1, BpsA (Streptomyces lavendulae, UniProt Q1MWN4); assay: BpsA end-point assay measuring L-glutamine in complex biological media (indigoidine re-solubilised in DMSO, A590); settings: for Spiked − unspiked (μM L-glutamine +/− 1 std dev): 300 μM spike
Experimental: For improved accuracy, reproducibility, and robustness, it is generally preferable to use an end-point assay over a kinetic assay. An end-point assay for BpsA was designed and carried out as follows. In these experiments, 40 μL indigoidine-producing reactions were run until all glutamine present was consumed, and then all the indigoidine was solubilised by adding 190 μL of the organosulfur solvent dimethyl sulfoxide (DMSO).
Indigoidine synthesis reactions were initiated by addition of 10 μL of each L-glutamine concentration standard in triplicate. […] The 96 plate was then mixed at 1000 rpm for 10 seconds and incubated at room temperature for 45 minutes to enable complete reaction of all L-glutamine present in each well. After this, 190 μL of DMSO heated to 50° C. was added to each well to solubilise the indigoidine. The 96 well plate was then incubated at room temperature with shaking at 2500 rpm for 10 minutes. […] This yielded a standard curve with an excellent straight line fit (FIG. 4).
For these experiments, standard samples (10 μL per well) were prepared in triplicate in ddH2O as per Example 4 at the following concentrations: 1000 μM, 800 μM, 600 μM, 400 μM, 200 μM, and 0 μM. Alongside these were aliquoted paired triplicate samples (10 μL per well) of the following media: adult bovine serum (purchased from Sigma-Aldrich), human urine, LB, DMEM, and ddH2O. For each medium, one of the two paired triplicate sets was spiked (amended) with 300 μM L-glutamine, while the other was left unspiked. Indigoidine synthesis was initiated by addition of 30 μL reaction mix (as described in Table 4) to each sample-containing well. The 96 well plate was then mixed at 1000 rpm for 10 seconds and incubated at room temperature for one hour, after which 180 μL of DMSO heated to 50° C. was added to each well. The plate was then shaken at 2500 rpm for 10 minutes to fully solubilise the indigoidine.
It was observed that the serum containing wells went immediately cloudy upon addition of DMSO, preventing meaningful A590 readings from being obtained for those samples. In all other cases, a single A590 reading for each well was recorded. For each sample, triplicate A590 values were averaged and this value was used to quantify glutamine levels based on the standard curve generated from the standard samples. With the exception of the ddH2O, it was unknown what the starting concentration of L-glutamine was in each medium being tested. However, the comparison of measured L-glutamine levels in spiked versus unspiked samples for each medium enabled assessment of the accuracy of the BpsA end-point assay in measuring L-glutamine concentrations in that medium.

BpsA [2] = target: T1, BpsA; assay: Relative reaction rate of L-glutamine versus analogue with BpsA; type: biochemical; settings: L-glutamine faster than an analogue (e.g. L-glycyl glutamine)
Experimental: Without wishing to be bound by theory, it is believed that BpsA or a related enzyme can be used to measure both L-glutamine and a glutamine analogue (e.g., L-glycyl glutamine) in the same sample. Experiments have shown that L-glutamine reacts much faster with BpsA (˜100-1000 fold) than an analogue. Thus, it would be possible to incubate the sample for a short period (e.g., 2 minutes), remove the blue pigment, and measure the pigment levels to calculate L-glutamine levels. It would then be possible to wait for a further longer period (e.g., 8 hours), and measure the remaining blue pigment to calculate analogue levels (e.g., L-glycyl glutamine). It is expected that there would be little contamination of the glutamine-based product by the analogue-based product based on the enzymatic profile for BpsA.

T1 sequence (Q1MWN4 whole entry): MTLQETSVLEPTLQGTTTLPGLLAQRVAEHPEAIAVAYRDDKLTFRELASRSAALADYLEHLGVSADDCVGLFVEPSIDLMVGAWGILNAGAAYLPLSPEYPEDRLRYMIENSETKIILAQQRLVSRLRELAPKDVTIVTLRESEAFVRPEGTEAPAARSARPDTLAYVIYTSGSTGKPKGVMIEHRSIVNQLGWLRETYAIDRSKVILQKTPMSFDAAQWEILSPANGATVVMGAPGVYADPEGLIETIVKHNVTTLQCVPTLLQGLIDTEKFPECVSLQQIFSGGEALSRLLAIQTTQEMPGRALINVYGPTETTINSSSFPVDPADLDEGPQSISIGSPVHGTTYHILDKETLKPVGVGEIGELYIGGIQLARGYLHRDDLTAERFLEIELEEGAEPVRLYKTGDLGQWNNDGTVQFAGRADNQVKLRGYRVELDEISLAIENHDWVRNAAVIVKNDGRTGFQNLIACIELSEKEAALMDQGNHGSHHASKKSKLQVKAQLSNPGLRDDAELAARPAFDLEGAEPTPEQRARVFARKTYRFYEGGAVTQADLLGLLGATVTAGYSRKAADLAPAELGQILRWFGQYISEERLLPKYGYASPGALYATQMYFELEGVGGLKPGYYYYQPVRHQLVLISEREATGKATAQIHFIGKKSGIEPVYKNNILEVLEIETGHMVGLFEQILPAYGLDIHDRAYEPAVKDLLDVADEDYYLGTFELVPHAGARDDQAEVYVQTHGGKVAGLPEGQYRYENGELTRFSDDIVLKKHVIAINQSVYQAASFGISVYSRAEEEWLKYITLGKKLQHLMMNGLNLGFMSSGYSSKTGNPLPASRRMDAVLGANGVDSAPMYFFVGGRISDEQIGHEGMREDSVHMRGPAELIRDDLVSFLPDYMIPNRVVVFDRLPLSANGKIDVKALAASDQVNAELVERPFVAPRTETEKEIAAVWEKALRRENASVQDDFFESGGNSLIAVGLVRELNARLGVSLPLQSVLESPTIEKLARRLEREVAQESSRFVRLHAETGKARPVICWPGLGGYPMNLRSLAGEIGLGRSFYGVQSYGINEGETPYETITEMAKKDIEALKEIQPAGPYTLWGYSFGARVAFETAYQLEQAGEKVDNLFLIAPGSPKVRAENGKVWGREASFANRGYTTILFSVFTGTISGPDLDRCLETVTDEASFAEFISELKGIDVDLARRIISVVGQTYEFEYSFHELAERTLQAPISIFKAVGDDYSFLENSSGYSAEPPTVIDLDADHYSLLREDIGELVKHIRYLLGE

In the case of `NC(=O)CC[C@H](N)C(=O)O` [L-glutamine], the “Spiked sample measurement (μM L-glutamine +/− 1 std dev)” value (BpsA [1]; DMEM spiked with 300 μM L-glutamine, standard curve in ddH2O) is reported as 427.4 ± 4.6 µM, the “Unspiked sample measurement (μM L-glutamine +/− 1 std dev)” value (shortened to “Unspiked sample measurement”) (BpsA [1]; DMEM) is reported as 20.3 ± 2.7 µM and the “Spiked − unspiked (μM L-glutamine +/− 1 std dev)” value (shortened to “Spiked − unspiked”) (BpsA [1]; DMEM) is reported as 407.0 ± 5.4 µM. For the same compound, the “Spiked sample measurement (μM L-glutamine +/− 1 std dev)” value (BpsA [1]; LB spiked with 300 μM L-glutamine, standard curve in ddH2O) was 377.9 ± 14.1 µM, the “Unspiked sample measurement” value (BpsA [1]; LB) was 49.6 ± 5.3 µM and the “Spiked − unspiked” value (BpsA [1]; LB) was 328.1 ± 15.2 µM. For the same compound, the “Spiked sample measurement (μM L-glutamine +/− 1 std dev)” value (BpsA [1]; ddH2O spiked with 300 μM L-glutamine) was 319.0 ± 5.4 µM, the “Spiked − unspiked” value (BpsA [1]; ddH2O) was 319.0 ± 5.4 µM and the “Spiked sample measurement (μM L-glutamine +/− 1 std dev)” value (BpsA [1]; human urine spiked with 300 μM L-glutamine, standard curve in ddH2O) was 295.8 ± 7.1 µM. For the same compound, the “Unspiked sample measurement” value (BpsA [1]; human urine) was 71.4 ± 23.6 µM, the “Spiked − unspiked” value (BpsA [1]; human urine) was 224.4 ± 24.9 µM and the “Reaction rate with BpsA relative to an analogue” value (BpsA [2]) was 100-1000 fold.
